# Experimental data as given in publication PMC10093836, “Stabilization of the Dimeric State of SARS-CoV-2 Main Protease by GC376 and Nirmatrelvir” (International Journal of Molecular Sciences, 2023).
# How the values were obtained:
# [1] = biological target: SARS-CoV-2 Mpro (Nsp5, 3CLpro) (Severe acute respiratory syndrome coronavirus 2, UniProt P0DTD1); assay: biochemical; type: binding; details: for Binding to Mpro (MST), in words: no binding curve produced
# [2] = tested on: Mpro; details: read-out: IC50 for Mpro; literature data; cited from earlier work
# [3] = tested on: cells; parameters: method as in PMID 32841477; details: literature values; cited from earlier work
# [4] = biological target: SARS-CoV-2 protease; parameters: method as in PMID 34726479, PMID 35233052, PMID 34653812; details: literature; read-out: Inhibition constant (Ki); cited from earlier work
compound,measurement,setting,value
Cc1cccc(C)c1OCC(=O)N[C@@H](Cc1ccccc1)[C@@H](O)C[C@H](Cc1ccccc1)NC(=O)[C@H](C(C)C)N1CCCNC1=O [Lopinavir],Kd,[1],> 200 µM
same,"Binding to Mpro (MST), in words",[1],do not bind Mpro effectively
CC(C)C[C@H](NC(=O)OCc1ccccc1)C(=O)N[C@@H](CC1CCNC1=O)C(O)S(=O)(=O)O (stereo partly shown) [GC376],IC50,[2],0.19 ± 0.04 µM
CCCCCCNC(=O)n1cc(F)c(=O)[nH]c1=O [Carmofur],EC50,[3],24 ± 3 µM
"CC(C)c1nc(CN(C)C(=O)N[C@H](C(=O)N[C@@H](Cc2ccccc2)C[C@H](O)[C@H](Cc2ccccc2)NC(=O)OCc2cncs2)C(C)C)cs1 [RTV, ritonavir]","Binding to Mpro (MST), in words",[1],do not bind Mpro effectively
Cc1c(O)cccc1C(=O)N[C@@H](CSc1ccccc1)[C@H](O)CN1C[C@H]2CCCC[C@H]2C[C@H]1C(=O)NC(C)(C)C [Nelfinavir],"Binding to Mpro (MST), in words",[1],do not bind Mpro effectively
"CC(C)(C)[C@H](NC(=O)C(F)(F)F)C(=O)N1C[C@H]2[C@@H]([C@H]1C(=O)N[C@H](C#N)C[C@@H]1CCNC1=O)C2(C)C [NMV, Nirmatrelvir]",Ki,[4],0.003 µM
